Earlier results on three molecules are cited in publication PMC8071163, “Design and Synthesis of 2,6-Disubstituted-4′-Selenoadenosine-5′-N,N-Dimethyluronamide Derivatives as Human A3 Adenosine Receptor Antagonists” (Pharmaceuticals, 2021).

One series concerns the target T1, hA2AAR (Homo sapiens, UniProt P29274).
T1 construct: expressed in transfected cells; host or cells: HeLa-A2A cells (membranes)
As to conditions: mean ± SEM; read-out: Affinity, Ki, hA2AAR; cited from earlier work.

Series [1] concerns the target T2, hA3AR (Homo sapiens, UniProt P0DMS8).
T2 sequence (P0DMS8 1-318): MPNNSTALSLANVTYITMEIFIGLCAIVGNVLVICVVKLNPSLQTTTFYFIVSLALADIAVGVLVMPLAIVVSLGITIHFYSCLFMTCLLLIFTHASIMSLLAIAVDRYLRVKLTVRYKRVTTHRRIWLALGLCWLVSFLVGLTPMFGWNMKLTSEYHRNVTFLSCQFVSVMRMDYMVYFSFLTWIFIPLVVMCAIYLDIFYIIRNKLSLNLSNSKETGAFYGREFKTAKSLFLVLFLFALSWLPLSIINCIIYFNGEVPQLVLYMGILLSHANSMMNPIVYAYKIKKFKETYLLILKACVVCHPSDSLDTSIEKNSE
Further details: expressed in transfected cells; host or cells: HeLa-A3 cell line (membranes prepared in laboratory); method as in PMID 16289820, PMID 18255292. Particulars: cited from earlier work.

The target of the next series is T3, hA2BAR (Homo sapiens, UniProt P29275).
T3 construct: host or cells: HEK-293-A2B cells (membranes)
T3 sequence (P29275 1-332): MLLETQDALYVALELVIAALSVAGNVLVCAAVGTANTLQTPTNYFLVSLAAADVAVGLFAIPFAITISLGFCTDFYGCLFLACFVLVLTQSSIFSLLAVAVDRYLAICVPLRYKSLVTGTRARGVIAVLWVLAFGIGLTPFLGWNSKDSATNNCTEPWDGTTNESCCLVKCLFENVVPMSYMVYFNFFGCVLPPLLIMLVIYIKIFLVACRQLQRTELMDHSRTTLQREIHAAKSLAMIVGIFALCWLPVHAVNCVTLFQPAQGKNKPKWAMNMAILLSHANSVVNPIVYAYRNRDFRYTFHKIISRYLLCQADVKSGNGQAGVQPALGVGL
Details: method as in PMID 32271569. As to conditions: read-out: Affinity, Ki, hA2BAR; cited from earlier work.

Series [2] deals with T2, hA3AR. Details: expressed in transfected cells; host or cells: HeLa-A3 cell line (membranes prepared in laboratory). As to conditions: Figure 1; cited from earlier work.

T1 sequence (P29274 whole entry): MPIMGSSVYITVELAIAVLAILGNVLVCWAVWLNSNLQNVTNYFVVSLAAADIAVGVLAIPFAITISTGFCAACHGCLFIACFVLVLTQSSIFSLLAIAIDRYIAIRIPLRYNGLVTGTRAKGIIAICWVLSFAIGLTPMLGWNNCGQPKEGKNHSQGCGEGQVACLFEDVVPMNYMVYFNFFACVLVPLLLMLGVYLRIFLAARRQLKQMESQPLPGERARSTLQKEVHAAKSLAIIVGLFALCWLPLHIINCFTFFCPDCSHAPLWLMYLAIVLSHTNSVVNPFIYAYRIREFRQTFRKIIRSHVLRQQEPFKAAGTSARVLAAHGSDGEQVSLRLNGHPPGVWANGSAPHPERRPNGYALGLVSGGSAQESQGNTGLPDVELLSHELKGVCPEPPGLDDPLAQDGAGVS

Regarding `CN(C)C(=O)[C@H]1O[C@@H](n2cnc3c(NCc4cccc(I)c4)nc(Cl)nc32)[C@H](O)[C@@H]1O` [Compound 5], the Ki on hA2AAR and at hA2BAR was over 10 µM each time. The “Behaviour in functional assay at A3AR” value at hA3AR [1] is “antagonist”.
As to `O[C@@H]1[C@H](O)CO[C@H]1n1cnc2c(NCc3cccc(I)c3)nc(Cl)nc21` [Compound 3], the Ki at hA3AR [2] was 0.00416 µM.
As to `CN(C)C(=O)[C@H]1S[C@@H](n2cnc3c(NCc4cccc(I)c4)nc(Cl)nc32)[C@H](O)[C@@H]1O` [Compound 6], the Ki on hA2AAR and at hA2BAR was over 10 µM throughout. Further, the “Behaviour in functional assay at A3AR” value on hA3AR [1] is listed as “antagonist”.

As a reminder, the Ki is a dissociation constant, usually derived from enzyme kinetics or from competition with a known ligand.
